Source: patent publication US6369061B1, “Therapeutic agent for spinal canal stenosis” (Mitsubishi Pharma Corporation, priority 1998, dated 2002)

Tested on: rabbit acute spinal canal stenosis model
Test: Rabbit cauda equina nerve graded constriction model as rabbit acute spinal canal stenosis model (nerve conduction velocity, tissue blood flow, tissue oxygen tension)
Assay type: in vivo
Conditions: for Cauda equina nerve conduction velocity / Cauda equina nerve tissue blood flow / Cauda equina nerve tissue oxygen tension: measured 8 days after model preparation, mean ± standard error
Protocol: Effects of compound A on cauda equina nerve conduction velocity, cauda equina nerve tissue blood flow and variation in cauda equina nerve tissue oxygen tension in a rabbit acute spinal canal stenosis model
(1) Preparation of the Rabbit Cauda Equina Nerve Graded Constriction Model as Rabbit Acute Spinal Canal Stenosis Model Male Japanese white rabbits were fixed at the abdominal position under anesthesia by an intravenous injection of pentobarbital sodium (25 mg/kg, DAINIPPON PHARMACEUTICAL CO., LTD.) and the vertebral arch of the fifth lumbar vertebra was removed under a microscope (OLYMPUS OME) observation to expose cauda equina nerve. After the cauda equina nerve fascicle was gently ligated at one site together with a 26 G injection needle using a catgut suture (chromic catgut (thread 4-0, needle 12.9 mm), Johnson and Johnson), the injection needle was pulled out, and the dissected portion was sutured. In the sham operation group, the cauda equina nerve was only exposed and the dissected portion was sutured.
The rabbits were grouped in turn into a sham operation group (6 rabbits), a solvent group (6 rabbits), a compound A (3 mg/kg) administration group (6 rabbits), a compound A (10 mg/kg) administration group (6 rabbits), a compound A (30 mg/kg) administration group (6 rabbits), and a cilostazol (300 mg/kg, the same anti-platelet drug as compound A as a control drug, Otsuka Pharmaceutical Co., Ltd.) administration group (6 rabbits).
The drug was prepared into the volume of 5 mL/kg by suspending in 0.5% methylcellulose solution, and orally administered repeatedly once a day for 7 consecutive days from the next day of the model preparation. The 0.5% methylcellulose solution (5 mL/kg) was administered in the same manner to the solvent group. Nothing was administered to the sham operation group.
The next day of the final administration (8 days after model animals preparation), the model animals were anesthetized by an intravenous injection of pentobarbital sodium (25 mg/kg) and, after insertion of a tracheal catheter, fixed at the abdominal position. The rabbits were connected to a ventilator (45 times/min) and given pancuronium bromide (0.08 mg/kg, Sankyo Co., Ltd.) by an intravenous administration. The cauda equina nerve tissue blood flow in the downstream portion of the ligation site was measured transdurally using a laser blood flowmeter [ADVANCED LASER FLOWMETER, ALF2100, Advance] under the microscope observation. The cauda equina nerve tissue oxygen tension was measured at the same site using a pO2 monitor (model POG-201, Unique Medical Co. Ltd.). The cauda equina nerve conduction velocity was obtained by deriving the action potential induced by a spinal electric stimulus in the upper point and lower point of the ligation site and dividing the distance between the both points by the difference in the rise latent time (SIGNAL PROCESSOR, San-ei).
The obtained results are shown in mean±standard error. Using SAS (Statistical Analysis System), the following statistical analysis was performed. The sham operation group and the solvent group were compared by the Student's t-test. The effect of the drug was verified by the Dunnett's method to the solvent group as a control. In both tests, p<0.05 was taken as statistically significant.

[1] = 3 mg/kg p.o. once a day for 7 days
[2] = 10 mg/kg p.o. once a day for 7 days
[3] = 30 mg/kg p.o. once a day for 7 days
[4] = 300 mg/kg p.o. once a day for 7 days
[5] = 300 mg/kg p.o., vs. solvent group

Row | SMILES | Cauda equina nerve conduction velocity [1] [cm/ms] | Cauda equina nerve tissue blood flow [1] [ml/min. 100 g tissue] | Cauda equina nerve tissue oxygen tension [1] [mmHg] | Cauda equina nerve conduction velocity [2] [cm/ms] | Cauda equina nerve tissue blood flow [2] [ml/min. 100 g tissue] | Cauda equina nerve tissue oxygen tension [2] [mmHg] | Cauda equina nerve conduction velocity [3] [cm/ms] | Cauda equina nerve tissue blood flow [3] [ml/min. 100 g tissue] | Cauda equina nerve tissue oxygen tension [3] [mmHg] | Effect on cauda equina nerve tissue blood flow (in words) (30 mg/kg p.o., vs. solvent group) | Effect on decrease in cauda equina nerve conduction velocity (in words) (3, 10, 30 mg/kg p.o., vs. solvent group) | Effect on cauda equina nerve tissue oxygen tension (in words) (3, 10, 30 mg/kg p.o., vs. solvent group, significant at 30 mg/kg) | Cauda equina nerve conduction velocity [4] [cm/ms] | Cauda equina nerve tissue blood flow [4] [ml/min. 100 g tissue] | Cauda equina nerve tissue oxygen tension [4] [mmHg] | Effect on cauda equina nerve conduction velocity (in words) [5] | Effect on cauda equina nerve tissue blood flow (in words) [5] | Effect on cauda equina nerve tissue oxygen tension (in words) [5]
1 | Cl.O=c1[nH]nc(OCCCc2ccc(Cl)cc2)c(NCc2cccnc2)c1Br [Compound A, 4-bromo-6-[3-(4-chlorophenyl)propoxy]-5-(3-pyridylmethylamino)-3(2H)-pyridazinone hydrochloride] | 20.327 ± 4.871 | 23.33 ± 4.59 | 35.5 ± 5.6 | 22.838 ± 3.571 | 24.42 ± 2.70 | 42.8 ± 5.8 | 27.098 ± 3.627 | 33.67 ± 4.21 | 49.8 ± 3.4 | significantly increased | significantly lessened the decrease in a dose-dependent manner | showed a dose-dependent increase | – | – | – | – | – | –
2 | O=C1CCc2cc(OCCCCc3nnnn3C3CCCCC3)ccc2N1 [Cilostazol, cilostazol, reference compound] | – | – | – | – | – | – | – | – | – | – | – | – | 14.585 ± 2.606 | 21.88 ± 4.25 | 33.7 ± 5.3 | did not improve the velocity | not improved | did not show an increasing effect
